Experimental data: patent US12552793B2, “Purine derivative and medical use thereof” (KANGBAIDA (SICHUAN) BIOTECHNOLOGY CO., LTD., priority 2019, dated 2026)

target: T1, DNA-PK kinase (Homo sapiens (Human), UniProt P78527); experiment: not given
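Further: enzyme inhibition of DNA-PK with kinase activity read out by chemiluminescence on a microplate reader after adding a kinase detection reagent.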

SMILES | IC50
Cc1cc2ncccc2cc1Nc1ncc2c(n1)n(C13CC4CC(CC(O)(C4)C1)C3)c(=O)n2C [Compound 2, 9-(3-Hydroxyadamantan-1-yl)-7-methyl-2-((7-methylquinolin-6-yl)amino)-7,9-dihydro-8H-purin-8-one] | 0.01 nM
Cc1cc2ncnn2cc1Nc1ncc2c(n1)n(C13CC4CC(CC(N)(C4)C1)C3)c(=O)n2C [Compound 10, 7-Methyl-2-[(7-methyl-[1,2,4]triazolo[1,5-a]pyridin-6-yl)amino]-9-[3-aminoadamantan-1-yl]-8,9-dihydro-7H-purin-8-one] | 2.26 nM
COC12CC3CC(C1)CC(n1c(=O)n(C)c4cnc(Nc5cn6ncnc6cc5C)nc41)(C3)C2 [Compound 11, 9-(3-Methoxyadamantan-1-yl)-7-methyl-2-((7-methyl-[1,2,4]triazolo[1,5-a]pyridin-6-yl)amino)-7,9-dihydro-8H-purin-8-one] | 0.1 nM
Cc1cc(C(N)=O)c(F)cc1Nc1ncc2c(n1)n(C1C3CC4CC1CC(O)(C4)C3)c(=O)n2C (single isomer, unassigned) [2-Fluoro-4-((9-(5-hydroxyadamantan-2-yl)-7-methyl-8-oxo-8,9-dihydro-7H-purin-2-yl)amino)-5-methylbenzamide] | 0.48 nM
Cc1cc(C(N)=O)c(F)cc1Nc1ncc2c(n1)n(C1C3CC4CC1CC(O)(C4)C3)c(=O)n2C (single isomer, unassigned) [Compound 27-1, 2-Fluoro-4-((9-(5-hydroxyadamantan-2-yl)-7-methyl-8-oxo-8,9-dihydro-7H-purin-2-yl)amino)-5-methylbenzamide] | 10.5 nM
CCOC(=O)C12CC3CC(C1)CC(n1c(=O)n(C)c4cnc(Nc5cn6ncnc6cc5C)nc41)(C3)C2 [Compound 7, Ethyl-3-(7-methyl-2-[(7-methyl-[1,2,4]triazolo[1,5-a]pyridin-6-yl)amino]-8-oxo-8,9-dihydro-7H-purin-9-yl)adamantane-1-carboxylate] | 0.01 nM
Cc1cc(C(N)=O)c(F)cc1Nc1ncc2c(n1)n(C13CC4CC(CC(C#N)(C4)C1)C3)c(=O)n2C [Compound 34, 4-((9-(3-Cyanoadamantan-1-yl)-7-methyl-8-oxo-8,9-dihydro-7H-purin-2-yl)amino)-2-fluoro-5-methylbenzamide] | 7.5 nM
Cc1cc(C#N)ccc1Nc1ncc2c(n1)n(C1C3CC4CC1CC(O)(C4)C3)c(=O)n2C (single isomer, unassigned) [Compound 13-1, 4-((9-(5-Hydroxyadamantan-2-yl)-7-methyl-8-oxo-8,9-dihydro-7H-purin-2-yl)amino)-3-methylbenzonitrile] | 0.68 nM
Cc1cc(C(N)=O)c(F)cc1Nc1ncc2c(n1)n(C13CC4CC(C1)C(C#N)C(C4)C3)c(=O)n2C (single isomer, unassigned) [Compound 24-2, 4-((9-(4-Cyanoadamantan-1-yl)-7-methyl-8-oxo-8,9-dihydro-7H-purin-2-yl)amino)-2-fluoro-5-methylbenzamide] | 8.39 nM
Cc1cc(C(N)=O)c(F)cc1Nc1ncc2c(n1)n(C13CC4CC(C1)C(=O)C(C4)C3)c(=O)n2C [Compound 25, 2-Fluoro-5-methyl-4-((7-methyl-8-oxo-9-(4-oxoadamantan-1-yl)-8,9-dihydro-7H-purin-2-yl)amino)benzamide] | 0.01 nM
Cc1cc2ncnn2cc1Nc1ncc2c(n1)n(C13CC4CC(CC(C(=O)O)(C4)C1)C3)c(=O)n2C [Compound 4, 3-(7-Methyl-2-((7-methyl-[1,2,4]triazolo[1,5-a]pyridin-6-yl)amino)-8-oxo-7,8-dihydro-9H-purin-9-yl)adamantane-1-carboxylic acid] | 0.45 nM
Cc1cc2ncnn2cc1Nc1ncc2c(n1)n(C13CC4CC(CC(C(N)=O)(C4)C1)C3)c(=O)n2C [Compound 5, 3-(7-Methyl-2-[(7-methyl-[1,2,4]triazolo[1,5-a]pyridin-6-yl)amino]-8-oxo-8,9-dihydro-7H-purin-9-yl)adamantane-1-carboxamide] | 3.87 nM
Cc1cc2ncnn2cc1Nc1ncc2c(n1)n(C13CC4CC(C1)C(C#N)C(C4)C3)c(=O)n2C (single isomer, unassigned) [Compound 21-2, 5-(7-Methyl-2-((7-methyl-[1,2,4]triazolo[1,5-a]pyridin-6-yl)amino)-8-oxo-7,8-dihydro-9H-purin-9-yl)adamantane-2-carbonitrile] | 0.1 nM
Cc1cc2ncnn2cc1Nc1ncc2c(n1)n(C13CC4CC(CC(CO)(C4)C1)C3)c(=O)n2C [Compound 8, 7-Methyl-2-[(7-methyl-[1,2,4]triazolo[1,5-a]pyridin-6-yl)amino]-9-[3-(hydroxymethyl)adamantan-1-yl]-8,9-dihydro-7H-purin-8-one] | 0.01 nM
Cc1cc2ncnn2cc1Nc1ncc2c(n1)n(C13CC4CC(CC(C(=O)N5CCOCC5)(C4)C1)C3)c(=O)n2C [Compound 9, 7-Methyl-2-[(7-methyl-[1,2,4]triazolo[1,5-a]pyridin-6-yl)amino]-9-[3-(morpholine-4-carbonyl)adamantan-1-yl]-8,9-dihydro-7H-purin-8-one] | 1.1 nM
Cc1cc2c(cc1Nc1ncc3c(n1)n(C14CC5CC(C1)C(=O)C(C5)C4)c(=O)n3C)CCO2 [Compound 30, 7-Methyl-2-((6-methyl-2,3-dihydrobenzofuran-5-yl)amino)-9-(4-oxoadamantan-1-yl)-7,9-dihydro-8H-purin-8-one] | 0.08 nM
Cc1cc2ncnn2cc1Nc1ncc2c(n1)n(C13CC4CC(C1)C(=O)C(C4)C3)c(=O)n2C [Compound 19, 7-Methyl-2-((7-methyl-[1,2,4]triazolo[1,5-a]pyridin-6-yl)amino)-9-(4-oxoadamantan-1-yl)-7,9-dihydro-8H-purin-8-one] | 0.03 nM
Cc1cc(C#N)ccc1Nc1ncc2c(n1)n(C1C3CC4CC1CC(O)(C4)C3)c(=O)n2C (single isomer, unassigned) [Compound 13-2, 4-((9-(5-Hydroxyadamantan-2-yl)-7-methyl-8-oxo-8,9-dihydro-7H-purin-2-yl)amino)-3-methylbenzonitrile] | 51.9 nM
Cc1cc(C(N)=O)c(F)cc1Nc1ncc2c(n1)n(C13CC4CC(CC(O)(C4)C1)C3)c(=O)n2C [Compound 22, 2-Fluoro-4-((9-(3-hydroxyadamantan-1-yl)-7-methyl-8-oxo-8,9-dihydro-7H-purin-2-yl)amino)-5-methylbenzamide] | 0.01 nM
Cn1c(=O)n(C23CC4CC(CC(O)(C4)C2)C3)c2nc(Nc3cc4c(cc3Cl)OCC4)ncc21 [Compound 33, 2-((6-Chloro-2,3-dihydrobenzofuran-5-yl)amino)-9-(3-hydroxyadamantan-1-yl)-7-methyl-7,9-dihydro-8H-purin-8-one] | 6.4 nM
Cc1cc2ncnn2cc1Nc1ncc2[nH]c(=O)n(C34CC5CC(CC(O)(C5)C3)C4)c2n1 [Compound 36, 9-(3-Hydroxyadamantan-1-yl)-2-((7-methyl-[1,2,4]triazolo[1,5-a]pyridin-6-yl)amino)-7,9-dihydro-8H-purin-8-one] | 0.32 nM
Cc1cc2ncnn2cc1Nc1ncc2c(n1)n(C13CC4CC(C1)C(C#N)C(C4)C3)c(=O)n2C (single isomer, unassigned) [Compound 21-1, 5-(7-Methyl-2-((7-methyl-[1,2,4]triazolo[1,5-a]pyridin-6-yl)amino)-8-oxo-7,8-dihydro-9H-purin-9-yl)adamantane-2-carbonitrile] | 0.01 nM
Cc1cc2c(cc1Nc1ncc3c(n1)n(C14CC5CC(CC(O)(C5)C1)C4)c(=O)n3C)CCO2 [Compound 32, 9-(3-Hydroxyadamantan-1-yl)-7-methyl-2-((6-methyl-2,3-dihydrobenzofuran-5-yl)amino)-7,9-dihydro-8H-purin-8-one] | 2.3 nM
Cc1cc2ncnn2cc1Nc1ncc2c(n1)n(C13CC4CC(CC(C(=O)OC(C)(C)C)(C4)C1)C3)c(=O)n2C [Compound 3, tert-Butyl-3-(7-methyl-2-[(7-methyl-[1,2,4]triazolo[1,5-a]pyridin-6-yl)amino]-8-oxo-8,9-dihydro-7H-purin-9-yl)adamantane-1-carboxylate] | 14.9 nM
Cc1cc2ncnn2cc1Nc1ncc2c(n1)n(C1C3CC4CC1CC(C#N)(C4)C3)c(=O)n2C (single isomer, unassigned) [Compound 28-2, 4-(7-Methyl-2-((7-methyl-[1,2,4]triazolo[1,5-a]pyridin-6-yl)amino)-8-oxo-7,8-dihydro-9H-purin-9-yl)adamantane-1-carbonitrile] | 0.1 nM
COC1(OC)C2CC3CC1CC(n1c(=O)n(C)c4cnc(Nc5cc6c(cc5C)OCC6)nc41)(C3)C2 [Compound 31, 9-(4,4-Dimethoxyadamantan-1-yl)-7-methyl-2-((6-methyl-2,3-dihydrobenzofuran-5-yl)amino)-7,9-dihydro-8H-purin-8-one] | 0.1 nM
Cc1cc2ncnn2cc1Nc1ncc2c(n1)n(C1C3CC4CC1CC(C#N)(C4)C3)c(=O)n2C (single isomer, unassigned) [Compound 28-1, 4-(7-Methyl-2-((7-methyl-[1,2,4]triazolo[1,5-a]pyridin-6-yl)amino)-8-oxo-7,8-dihydro-9H-purin-9-yl)adamantane-1-carbonitrile] | 0.75 nM
Cc1cc(C(N)=O)c(F)cc1Nc1ncc2c(n1)n(C13CC4CC(C1)C(C#N)C(C4)C3)c(=O)n2C (single isomer, unassigned) [Compound 24-1, 4-((9-(4-Cyanoadamantan-1-yl)-7-methyl-8-oxo-8,9-dihydro-7H-purin-2-yl)amino)-2-fluoro-5-methylbenzamide] | 0.66 nM

target: T1, DNA-PK kinase; experiment: biochemical
Method: Inhibition of DNA-PK Kinase
The inhibitory activity of the compounds against DNA-PK kinase was determined using a DNA-PK kinase assay kit (purchased from Promega, Cat. No. V4107, Batch No. 0000366495). The results were quantified using chemiluminescence, specifically as follows: • i. ADP-fluorescence standard curves at different concentrations were constructed according to the instructions of the kit; • ii. reaction systems (5 L) were prepared in a 384-well white plate; 1 μL of a compound (concentration gradients 1 μM, 200 nM, 40 nM, 8 nM, 1.6 nM, 0.32 nM, 0.064 nM and 0.013 nM were set for each compound), 20 units of DNA-PK kinase, 0.2 μg/μL substrate, 10 μg/μL DNA, 50 μM ATP and 1% DMSO were successively added to each well; • iii. the mixtures were well mixed, centrifuged (1000 rpm, 30 s), and incubated at 37° C. for 60 min; • iv. the reactions were terminated by adding 5 μL of ADP-Glo™ Reagent; the mixtures were well mixed, centrifuged (1000 rpm, 30 s), and incubated at room temperature for 40 min; • v. 10 μL of Kinase Detection Reagent was added; the mixtures were well mixed by shaking, centrifuged (1000 rpm, 30 s), and incubated at room temperature for 30 min; • vi. fluorescence values were measured using a microplate reader (Thermo fisher, Varioskan LUX). IC50 was calculated using GraphPad Prism 8.

SMILES | IC50
CNC(=O)c1cc(C)c(Nc2ncc3c(n2)n(C24CC5CC(CC(O)(C5)C2)C4)c(=O)n3C)cn1 [Compound 15, 5-((9-(3-Hydroxyadamantan-1-yl)-7-methyl-8-oxo-8,9-dihydro-7H-purin-2-yl)amino)-N,4-dimethylpicolinamide] | 1.1 nM
Cc1cc2ncnn2cc1Nc1ncc2c(n1)n(C13CC4CC(C1)C(O)C(C4)C3)c(=O)n2C (stereo not drawn) [Compound 18-2, 9-(4-Hydroxyadamantan-1-yl)-7-methyl-2-((7-methyl-[1,2,4]triazolo[1,5-a]pyridin-6-yl)amino)-7,9-dihydro-8H-purin-8-one] | 0.13 nM
